Laboratory results reported in ChEMBL document CHEMBL5649167, “The SUV4-20 inhibitor A-196 verifies a role for epigenetics in genomic integrity” (Nat Chem Biol, 2017).
Calls of active or inactive are those of the source. No cut-off for these calls is given here.

How the values were obtained:
[1] = target: C-X-C chemokine receptor type 2 (Homo sapiens) (UniProt P25025); assay: Inhibition of human CXCR2 at 10 uM relative to control
[2] = target: Histamine H2 receptor (Homo sapiens) (UniProt P25021); assay: Inhibition of human Histamine H2 receptor expressed in stable HEK cells at 10 uM relative to control; type: cell-based
Chain of Histamine H2 receptor (Homo sapiens) (P25021 whole entry): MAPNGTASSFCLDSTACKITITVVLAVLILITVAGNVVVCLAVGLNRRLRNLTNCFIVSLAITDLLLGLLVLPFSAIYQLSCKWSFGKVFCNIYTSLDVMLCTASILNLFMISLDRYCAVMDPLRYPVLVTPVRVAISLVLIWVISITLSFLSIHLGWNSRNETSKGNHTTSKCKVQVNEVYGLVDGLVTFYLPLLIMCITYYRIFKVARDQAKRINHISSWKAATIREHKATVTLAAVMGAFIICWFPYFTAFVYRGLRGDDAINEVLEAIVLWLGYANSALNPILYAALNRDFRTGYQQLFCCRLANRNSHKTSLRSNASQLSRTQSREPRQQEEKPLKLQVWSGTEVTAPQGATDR

[3] = target: Mu-type opioid receptor (Homo sapiens) (UniProt P35372); assay: Inhibition of human Mu-type opioid receptor at 10 uM relative to control
Chain of Mu-type opioid receptor (Homo sapiens) (P35372 whole entry): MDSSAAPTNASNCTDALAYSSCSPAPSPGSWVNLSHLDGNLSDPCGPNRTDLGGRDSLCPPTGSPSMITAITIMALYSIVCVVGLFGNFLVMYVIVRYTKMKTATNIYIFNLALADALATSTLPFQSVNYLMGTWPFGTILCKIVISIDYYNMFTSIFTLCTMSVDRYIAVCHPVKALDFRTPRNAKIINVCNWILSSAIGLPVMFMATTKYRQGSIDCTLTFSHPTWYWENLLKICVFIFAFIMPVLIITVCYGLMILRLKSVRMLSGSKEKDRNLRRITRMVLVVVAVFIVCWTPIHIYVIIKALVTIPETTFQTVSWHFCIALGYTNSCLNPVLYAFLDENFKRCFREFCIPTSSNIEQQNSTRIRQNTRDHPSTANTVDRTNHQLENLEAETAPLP

[4] = target: Beta-1 adrenergic receptor (Homo sapiens) (UniProt P08588); assay: Inhibition of human Beta-1 adrenoceptor at 10 uM relative to control
Chain of Beta-1 adrenergic receptor (Homo sapiens) (P08588 whole entry, looked up): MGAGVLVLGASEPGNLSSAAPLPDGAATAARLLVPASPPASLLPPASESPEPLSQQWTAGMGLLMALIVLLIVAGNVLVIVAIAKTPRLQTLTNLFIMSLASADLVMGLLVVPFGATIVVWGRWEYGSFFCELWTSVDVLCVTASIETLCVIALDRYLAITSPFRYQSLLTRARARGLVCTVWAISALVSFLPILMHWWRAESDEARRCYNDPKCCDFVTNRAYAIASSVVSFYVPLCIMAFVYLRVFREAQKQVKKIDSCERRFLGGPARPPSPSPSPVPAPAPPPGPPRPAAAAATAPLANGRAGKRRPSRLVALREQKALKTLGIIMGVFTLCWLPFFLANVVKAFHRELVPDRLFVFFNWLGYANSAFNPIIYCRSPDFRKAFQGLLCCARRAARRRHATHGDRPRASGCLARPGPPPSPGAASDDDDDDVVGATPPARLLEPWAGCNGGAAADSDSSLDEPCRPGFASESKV

[5] = target: D(1A) dopamine receptor (Homo sapiens) (UniProt P21728); assay: Inhibition of human D(1A) dopamine receptor expressed in HEK293T cells at 10 uM relative to control; type: cell-based
Chain of D(1A) dopamine receptor (Homo sapiens) (P21728 whole entry): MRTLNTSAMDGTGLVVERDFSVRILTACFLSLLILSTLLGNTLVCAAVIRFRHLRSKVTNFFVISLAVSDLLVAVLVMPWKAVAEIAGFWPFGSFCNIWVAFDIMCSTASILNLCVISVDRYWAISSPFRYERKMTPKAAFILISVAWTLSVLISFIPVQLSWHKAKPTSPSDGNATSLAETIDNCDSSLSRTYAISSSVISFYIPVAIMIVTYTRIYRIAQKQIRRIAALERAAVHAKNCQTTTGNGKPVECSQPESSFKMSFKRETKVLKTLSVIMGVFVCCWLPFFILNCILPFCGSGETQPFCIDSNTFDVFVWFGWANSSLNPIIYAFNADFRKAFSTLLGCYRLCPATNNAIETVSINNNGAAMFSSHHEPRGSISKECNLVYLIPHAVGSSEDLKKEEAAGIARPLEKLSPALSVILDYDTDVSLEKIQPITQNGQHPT

[6] = target: Sigma intracellular receptor 2 (Homo sapiens) (UniProt Q5BJF2); assay: Inhibition of human Sigma intracellular receptor 2 at 10 uM relative to control; type: cell-based
Chain of Sigma intracellular receptor 2 (Homo sapiens) (Q5BJF2 whole entry): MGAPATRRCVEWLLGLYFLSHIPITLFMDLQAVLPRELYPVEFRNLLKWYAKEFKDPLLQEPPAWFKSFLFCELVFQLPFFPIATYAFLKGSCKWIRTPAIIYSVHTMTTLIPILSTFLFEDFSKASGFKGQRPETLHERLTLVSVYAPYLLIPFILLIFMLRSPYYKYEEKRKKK

[7] = target: T1, Muscarinic acetylcholine receptor M1 (Homo sapiens) (UniProt P11229); assay: Inhibition of human Muscarinic acetylcholine receptor M1 expressed in stable Cricetulus griseus CHO cells at 10 uM relative to control; type: cell-based
T1 sequence (whole entry): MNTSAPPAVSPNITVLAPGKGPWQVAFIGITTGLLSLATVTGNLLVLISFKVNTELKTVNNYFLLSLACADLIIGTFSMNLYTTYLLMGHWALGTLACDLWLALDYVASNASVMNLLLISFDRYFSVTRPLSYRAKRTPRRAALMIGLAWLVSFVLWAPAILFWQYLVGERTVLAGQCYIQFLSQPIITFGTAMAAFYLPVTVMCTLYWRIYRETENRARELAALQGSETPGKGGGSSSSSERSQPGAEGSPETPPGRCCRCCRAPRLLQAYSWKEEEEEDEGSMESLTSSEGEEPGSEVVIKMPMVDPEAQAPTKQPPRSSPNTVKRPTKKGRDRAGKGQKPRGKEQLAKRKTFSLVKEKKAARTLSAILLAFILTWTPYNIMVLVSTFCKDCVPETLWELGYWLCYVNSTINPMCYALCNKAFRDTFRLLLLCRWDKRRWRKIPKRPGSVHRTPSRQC

[8] = target: T2, Muscarinic acetylcholine receptor M2 (Homo sapiens) (UniProt P08172); assay: Inhibition of human Muscarinic acetylcholine receptor M2 at 10 uM relative to control
T2 sequence (whole entry): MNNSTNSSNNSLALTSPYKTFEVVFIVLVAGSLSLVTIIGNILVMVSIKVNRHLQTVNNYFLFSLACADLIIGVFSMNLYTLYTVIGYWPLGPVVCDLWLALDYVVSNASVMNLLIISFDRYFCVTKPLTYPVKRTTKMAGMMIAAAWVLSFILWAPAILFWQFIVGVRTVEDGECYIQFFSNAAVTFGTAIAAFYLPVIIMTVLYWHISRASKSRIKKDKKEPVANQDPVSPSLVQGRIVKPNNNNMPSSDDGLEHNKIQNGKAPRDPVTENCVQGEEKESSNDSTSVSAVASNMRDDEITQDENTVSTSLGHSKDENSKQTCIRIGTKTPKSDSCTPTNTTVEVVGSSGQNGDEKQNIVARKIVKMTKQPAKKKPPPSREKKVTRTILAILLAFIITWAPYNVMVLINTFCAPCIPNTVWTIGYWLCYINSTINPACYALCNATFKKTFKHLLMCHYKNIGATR

[9] = target: Galanin receptor type 2 (Homo sapiens) (UniProt O43603); assay: Inhibition of human GAL2 at 10 uM relative to control
Chain of Galanin receptor type 2 (Homo sapiens) (O43603 whole entry): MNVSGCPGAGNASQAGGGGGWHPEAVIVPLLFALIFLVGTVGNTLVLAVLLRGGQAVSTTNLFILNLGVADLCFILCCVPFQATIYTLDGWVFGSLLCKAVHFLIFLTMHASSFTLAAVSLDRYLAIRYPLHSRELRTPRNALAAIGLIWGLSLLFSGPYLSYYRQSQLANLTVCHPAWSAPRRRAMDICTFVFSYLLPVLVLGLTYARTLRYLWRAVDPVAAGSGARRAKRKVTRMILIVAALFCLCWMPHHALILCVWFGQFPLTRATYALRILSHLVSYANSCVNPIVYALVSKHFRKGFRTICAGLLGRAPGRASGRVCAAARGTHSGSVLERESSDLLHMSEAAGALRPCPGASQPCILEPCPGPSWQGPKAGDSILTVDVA

[10] = target: 5-hydroxytryptamine receptor 2A (Homo sapiens) (UniProt P28223); assay: Inhibition of human 5-HT2A at 10 uM relative to control
[11] = target: B2 bradykinin receptor (Homo sapiens) (UniProt P30411); assay: Inhibition of human BK-2 receptor at 10 uM relative to control
Chain of B2 bradykinin receptor (Homo sapiens) (P30411 whole entry): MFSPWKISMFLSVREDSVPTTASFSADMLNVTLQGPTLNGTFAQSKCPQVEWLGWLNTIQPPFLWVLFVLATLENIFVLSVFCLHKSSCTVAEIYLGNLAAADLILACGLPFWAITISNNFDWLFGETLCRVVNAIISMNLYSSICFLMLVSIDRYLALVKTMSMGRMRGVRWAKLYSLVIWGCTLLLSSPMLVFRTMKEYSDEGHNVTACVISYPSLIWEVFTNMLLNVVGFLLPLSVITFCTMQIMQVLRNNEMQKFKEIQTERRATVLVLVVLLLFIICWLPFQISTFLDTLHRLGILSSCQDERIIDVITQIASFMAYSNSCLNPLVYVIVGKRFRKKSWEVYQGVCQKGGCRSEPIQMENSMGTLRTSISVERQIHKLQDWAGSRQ

[12] = target: Alpha-2B adrenergic receptor (Homo sapiens) (UniProt P18089); assay: Inhibition of human Alpha-2B adrenergic receptor expressed in HEK293T cells at 10 uM relative to control; type: cell-based
[13] = target: Nociceptin receptor (Homo sapiens) (UniProt P41146); assay: Inhibition of human Nociceptin receptor at 10 uM relative to control
[14] = target: 5-hydroxytryptamine receptor 2C (Homo sapiens) (UniProt P28335); assay: Inhibition of human 5-HT2C receptor expressed in HEK293T cells at 10 uM relative to control; type: cell-based
[15] = target: Sodium-dependent serotonin transporter (Homo sapiens) (UniProt P31645); assay: Inhibition of human 5-HT transporter at 10 uM relative to control
Chain of Sodium-dependent serotonin transporter (Homo sapiens) (P31645 whole entry, looked up): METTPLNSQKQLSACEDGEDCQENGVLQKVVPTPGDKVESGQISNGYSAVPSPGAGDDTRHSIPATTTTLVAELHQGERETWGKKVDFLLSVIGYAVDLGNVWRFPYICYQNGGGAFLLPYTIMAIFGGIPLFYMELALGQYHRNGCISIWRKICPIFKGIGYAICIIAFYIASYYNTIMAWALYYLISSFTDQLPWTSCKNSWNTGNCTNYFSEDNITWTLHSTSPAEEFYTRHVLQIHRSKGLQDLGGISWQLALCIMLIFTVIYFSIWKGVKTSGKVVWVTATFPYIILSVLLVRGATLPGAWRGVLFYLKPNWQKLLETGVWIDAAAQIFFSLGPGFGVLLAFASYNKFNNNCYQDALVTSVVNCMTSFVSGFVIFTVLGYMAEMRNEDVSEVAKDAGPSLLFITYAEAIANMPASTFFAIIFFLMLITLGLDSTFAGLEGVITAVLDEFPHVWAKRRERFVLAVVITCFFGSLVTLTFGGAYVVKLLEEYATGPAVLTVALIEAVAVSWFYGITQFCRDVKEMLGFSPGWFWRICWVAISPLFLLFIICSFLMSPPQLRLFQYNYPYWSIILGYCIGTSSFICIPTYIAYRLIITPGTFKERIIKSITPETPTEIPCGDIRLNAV

[16] = target: 5-hydroxytryptamine receptor 2B (Homo sapiens) (UniProt P41595); assay: Inhibition of human 5-HT2B receptor expressed in stable HEK cells at 10 uM relative to control; type: cell-based
Chain of 5-hydroxytryptamine receptor 2B (Homo sapiens) (P41595 whole entry): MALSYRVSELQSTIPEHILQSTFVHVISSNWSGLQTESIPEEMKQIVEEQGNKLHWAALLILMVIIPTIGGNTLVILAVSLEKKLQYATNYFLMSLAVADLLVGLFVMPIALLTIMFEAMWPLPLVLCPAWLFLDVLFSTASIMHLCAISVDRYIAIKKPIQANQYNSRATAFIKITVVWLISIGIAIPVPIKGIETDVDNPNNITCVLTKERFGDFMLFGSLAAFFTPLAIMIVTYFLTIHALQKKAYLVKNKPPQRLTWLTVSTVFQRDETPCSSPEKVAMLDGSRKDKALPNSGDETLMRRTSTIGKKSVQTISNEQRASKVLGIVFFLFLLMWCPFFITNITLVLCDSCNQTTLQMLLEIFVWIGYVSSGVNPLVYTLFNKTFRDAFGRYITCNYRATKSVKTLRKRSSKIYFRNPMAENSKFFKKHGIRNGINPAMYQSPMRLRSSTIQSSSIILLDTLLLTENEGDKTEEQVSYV

[17] = target: T2, Muscarinic acetylcholine receptor M2 (Homo sapiens); assay: Inhibition of human Muscarinic acetylcholine receptor M2 expressed in stable Cricetulus griseus CHO cells at 10 uM relative to control; type: cell-based
[18] = target: 5-hydroxytryptamine receptor 5A (Homo sapiens) (UniProt P47898); assay: Inhibition of human 5-HT5a at 10 uM relative to control
B-cell = assay: Induction of DNA repair in mouse B cells assessed as inhibition in H4K20me3 level at 1 to 10 uM incubated for 96 hrs by western blot analysis; type: functional, cell-based; settings: dose 1-10 µM
[19] = target: Mu-type opioid receptor (Homo sapiens) (UniProt P35372); assay: Inhibition of human Mu-type opioid receptor expressed in stable HEK cells at 10 uM relative to control; type: cell-based
Rattus norvegicus [20] = species on record: Rattus norvegicus; assay: Inhibition of Rat GABAA at 10 uM in the presence of PBR relative to control
Rattus norvegicus [21] = species on record: Rattus norvegicus; assay: Inhibition of Rat alpha 1-Adrenoceptor at 10 uM relative to control
[22] = target: Beta-1 adrenergic receptor (Homo sapiens) (UniProt P08588); assay: Inhibition of human Beta-1 adrenergic receptor expressed in Cricetulus griseus Flp-In-CHO cells at 10 uM relative to control; type: cell-based
[23] = target: D(1A) dopamine receptor (Homo sapiens) (UniProt P21728); assay: Inhibition of human D(1A) dopamine receptor at 10 uM relative to control
[24] = target: Kappa-type opioid receptor (Homo sapiens) (UniProt P41145); assay: Inhibition of human kappa opioid receptor expressed in stable HEK cells at 10 uM relative to control; type: cell-based
Chain of Kappa-type opioid receptor (Homo sapiens) (P41145 whole entry): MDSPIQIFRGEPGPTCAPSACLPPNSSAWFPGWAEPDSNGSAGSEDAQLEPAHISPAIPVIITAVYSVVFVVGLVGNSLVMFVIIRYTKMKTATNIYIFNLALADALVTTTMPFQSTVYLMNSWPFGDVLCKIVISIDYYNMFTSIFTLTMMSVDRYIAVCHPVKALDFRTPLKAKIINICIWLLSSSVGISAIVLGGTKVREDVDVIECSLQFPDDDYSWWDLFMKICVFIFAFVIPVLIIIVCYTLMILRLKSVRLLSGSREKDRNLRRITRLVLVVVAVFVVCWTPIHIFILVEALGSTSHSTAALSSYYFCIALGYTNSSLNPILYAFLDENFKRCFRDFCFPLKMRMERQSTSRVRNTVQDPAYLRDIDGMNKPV

[25] = target: D(2) dopamine receptor (Homo sapiens) (UniProt P14416); assay: Inhibition of human D(2) dopamine receptor expressed in stable human fibroblast cells at 10 uM relative to control; type: cell-based
Chain of D(2) dopamine receptor (Homo sapiens) (P14416 whole entry): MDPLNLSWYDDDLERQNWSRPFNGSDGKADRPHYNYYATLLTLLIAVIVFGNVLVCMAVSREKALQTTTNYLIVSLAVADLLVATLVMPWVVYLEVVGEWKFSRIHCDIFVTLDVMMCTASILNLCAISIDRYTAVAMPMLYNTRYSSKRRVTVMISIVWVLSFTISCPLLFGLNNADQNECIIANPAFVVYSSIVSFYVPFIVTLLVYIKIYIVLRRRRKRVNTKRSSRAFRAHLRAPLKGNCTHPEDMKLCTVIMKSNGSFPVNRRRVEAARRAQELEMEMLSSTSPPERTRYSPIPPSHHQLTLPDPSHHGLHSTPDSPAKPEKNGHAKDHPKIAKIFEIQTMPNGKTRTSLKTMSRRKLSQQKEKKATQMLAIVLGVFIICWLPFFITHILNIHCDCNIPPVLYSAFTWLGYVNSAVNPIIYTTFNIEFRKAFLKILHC

[26] = target: T1, Muscarinic acetylcholine receptor M1 (Homo sapiens); assay: Inhibition of human Muscarinic acetylcholine receptor M1 at 10 uM relative to control
[27] = target: 5-hydroxytryptamine receptor 7 (Homo sapiens) (UniProt P34969); assay: Inhibition of human 5-HT7 at 10 uM relative to control
Homo sapiens = species on record: Homo sapiens; assay: Inhibition of human 5-HT3 at 10 uM relative to control
[28] = target: Cholecystokinin receptor type A (Homo sapiens) (UniProt P32238); assay: Inhibition of human CCK1 at 10 uM relative to control
[29] = target: Kappa-type opioid receptor (Homo sapiens) (UniProt P41145); assay: Inhibition of human Kappa-type opioid receptor at 10 uM relative to control

Chain of C-X-C chemokine receptor type 2 (Homo sapiens) (P25025 whole entry): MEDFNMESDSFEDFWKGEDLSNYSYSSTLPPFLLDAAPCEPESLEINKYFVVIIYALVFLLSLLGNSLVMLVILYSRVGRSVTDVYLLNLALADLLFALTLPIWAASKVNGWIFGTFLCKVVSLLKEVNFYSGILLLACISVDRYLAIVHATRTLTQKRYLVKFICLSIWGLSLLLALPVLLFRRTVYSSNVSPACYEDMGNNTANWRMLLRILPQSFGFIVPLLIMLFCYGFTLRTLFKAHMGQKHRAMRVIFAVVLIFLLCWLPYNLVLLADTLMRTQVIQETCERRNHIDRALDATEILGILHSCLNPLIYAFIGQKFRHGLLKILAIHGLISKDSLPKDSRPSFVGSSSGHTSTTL

| SMILES | inhibition [1] | inhibition [2] | inhibition [3] | inhibition [4] | inhibition [5] | inhibition [6] | inhibition [7] | inhibition [8] | inhibition [9] | inhibition [10] | inhibition [11] | inhibition [12] | inhibition [13] | inhibition [14] | inhibition [15] | inhibition [16] | inhibition [17] | inhibition [18] | inhibition (B-cell) | inhibition [19] | other results |
| --- | --- | --- | --- | --- | --- | --- | --- | --- | --- | --- | --- | --- | --- | --- | --- | --- | --- | --- | --- | --- | --- |
| O=C(c1nnc(NC2CCCC2)c2cc(Cl)c(Cl)cc12)N1CCC(O)CC1 | 8% | -7% | 23% | 11% | -1% | -1% | -8% | -2% | -8% | -5% | -4% | 7% | 0% | 13% | -7% | 4% | -5% | 2% | inactive | 22% | inhibition (Rattus norvegicus [20]): 65%; inhibition (Rattus norvegicus [21]): 12%; inhibition [22]: -4%; inhibition [23]: -3%; inhibition [24]: 54%; inhibition [25]: 39%; inhibition [26]: 10%; inhibition [27]: -3%; inhibition (Homo sapiens): 6%; inhibition [28]: 7%; inhibition [29]: 45% |
| Clc1cc2c(NC3CCCC3)nnc(-c3ccncc3)c2cc1Cl | -1% | -1% | 31% | 3% | 2% | 1% | 4% | 23% | 3% | -1% | 1% | 14% | 13% | 8% | 5% | 16% | -1% | 9% | Active | 11% | inhibition (Rattus norvegicus [20]): 1%; inhibition (Rattus norvegicus [21]): 5%; inhibition [22]: 32%; inhibition [23]: 15%; inhibition [24]: 26%; inhibition [25]: -6%; inhibition [26]: 21%; inhibition [27]: 6%; inhibition (Homo sapiens): 4%; inhibition [28]: -2%; inhibition [29]: 62% |
